Our source for the Activity and IC50 values is ChEMBL document CHEMBL1821626, “Novel 2-thioxothiazolidin-4-one inhibitors of bacterial MurD ligase targeting D-Glu- and diphosphate-binding sites” (Eur J Med Chem, 2011).

The nature of one test: Inhibition of Escherichia coli MurD ligase assessed as residual activity at 500 uM after 15 mins by colorimetric malachite green assay.
For `CN1C(=O)/C(=C/c2ccc(C(=O)N[C@H](CCC(=O)O)C(=O)O)cc2)SC1=S`, the Activity is 85%.

Regarding `N=C1NC(=O)/C(=C/c2ccc(C(=O)N[C@H](CCC(=O)O)C(=O)O)cc2)S1`, the Activity worked out at 95%.

Regarding `O=C(O)CC[C@@H](NC(=O)c1cccc(CC2SC(=S)NC2=O)c1)C(=O)O` (stereo partly specified), the Activity came to 91%.

Regarding `O=C(O)CC[C@@H](NC(=O)c1cc(/C=C2\SC(=S)NC2=O)ccc1F)C(=O)O`, the Activity stood at 67%.

For the molecule `COC(=O)CC[C@@H](NC(=O)c1cccc(CC2SC(=S)NC2=O)c1)C(=O)OC` (stereo partly specified), the Activity was 91%.

For the molecule `O=C(O)CC[C@@H](NC(=O)c1ccc(/C=C2\NC(=O)NC2=O)cc1)C(=O)O`, the Activity amounted to 97%.

Take `O=C(O)CC[C@@H](NC(=O)c1ccc(CC2SC(=S)NC2=O)cc1)C(=O)O` (stereo partly specified): the Activity was 96%.

With `O=C(O)CC[C@@H](NC(=O)c1ccc(/C=C2\SC(=S)N(CC(=O)O)C2=O)cc1)C(=O)O`, the Activity was determined as 96%.

A short description of a further test: Inhibition of Escherichia coli MurD ligase assessed as residual activity at 250 uM after 15 mins by colorimetric malachite green assay.
As to `O=C(O)CC[C@H](NC(=O)c1cccc(/C=C2\SC(=O)NC2=O)c1)C(=O)O`, the Activity was 96%.

As to `O=C(O)CC[C@@H](NC(=O)c1cccc(/C=C2\SC(=O)NC2=O)c1)C(=O)O`, the Activity is 97%.

Consider `O=C(O)CC[C@@H](NC(=O)c1ccc(/C=C2\SC(=O)NC2=O)cc1)C(=O)O`, for which the Activity came to 96%.

As to `O=C(O)CC[C@H](NC(=O)c1ccc(/C=C2\SC(=O)NC2=O)cc1)C(=O)O`, the Activity was determined as 93%.

The next test is described as follows: Inhibition of Escherichia coli MurD ligase after 15 mins by colorimetric malachite green assay.
The molecule `O=C(O)CC[C@H](NC(=O)c1cccc(/C=C2\SC(=S)NC2=O)c1)C(=O)O` registered an IC50 of 172 µM.

In turn, `O=C(O)CC[C@@H](NC(=O)c1cccc(/C=C2\SC(=S)NC2=O)c1)C(=O)O` came in with an IC50 of 89 µM.

Molecule `O=C(O)CC[C@H](NC(=O)c1ccc(/C=C2\SC(=S)NC2=O)cc1)C(=O)O` yielded an IC50 of 10 µM.

As for `O=C(O)CC[C@@H](NC(=O)c1ccc(/C=C2\SC(=S)NC2=O)cc1)C(=O)O`, the midpoint of inhibition, the IC50, lay at 45 µM. This IC50 is about 4.5-fold higher than that of the molecule before.

In general, IC50 refers to the midpoint of a concentration-inhibition curve. A lower IC50 goes with greater potency in that assay.
